Laboratory results reported in patent US20030082625A1, “Method for the pretreatment of a surface for the reduction of non-specific binding by chemical entities” (priority 2001, published 2003).

Legend:
[1] = Non-specific binding (NSB) of drugs to ultrafiltration membrane filter, regenerated cellulose (Millipore Ultrafree-MC UFC 3LGC00, 10 k NMWL); assay type: physicochemical; conditions: for NSB (%) Control / NSB (%) 0.5% Tween / NSB (%) 0.5% BAK / NSB (%) 1% Tween / NSB (%) 1% BAK / NSB (%) 2% Tween / NSB (%) 2% BAK / NSB (%) 5% Tween / NSB (%) 5% BAK / NSB (%) Tween 80 / NSB (%) BAK / NSB (%) SLS / NSB (%) Serum: regenerated cellulose; for NSB (%) 0.5% Tween: pretreatment 0.5% Tween 80; for NSB (%) 0.5% Tween / NSB (%) 1% Tween / NSB (%) 2% Tween / NSB (%) 5% Tween: drug 5 uM; for NSB (%) 0.5% BAK: pretreatment 0.5% benzalkonium chloride; for NSB (%) 0.5% BAK / NSB (%) 1% BAK / NSB (%) 2% BAK / NSB (%) 5% BAK: drug 10 uM; for NSB (%) 1% Tween: pretreatment 1% Tween 80; for NSB (%) 1% BAK: pretreatment 1% benzalkonium chloride; for NSB (%) 2% Tween: pretreatment 2% Tween 80; for NSB (%) 2% BAK: pretreatment 2% benzalkonium chloride; for NSB (%) 5% Tween: pretreatment 5% Tween 80; for NSB (%) 5% BAK: pretreatment 5% benzalkonium chloride; for NSB (%) Tween 80: pretreatment with 0.5% Tween 80; for NSB (%) BAK: pretreatment with 0.5% benzalkonium chloride; for NSB (%) SLS: pretreatment with 0.5% sodium lauryl sulfate; for NSB (%) Serum: pretreatment with human serum; for NSB (%) RC: regenerated cellulose membrane, drug concentration 10 uM
Procedure: (§1) Various experiments were performed using the following reagents, surfactants and reservoirs (also comprising ultrafiltration units): human serum, pH 7.4 phosphate buffered saline (PBS), drug solution (i.e. compound) in serum at a concentration of 1-50 μM, and drug solution in PBS at a concentration of 1-50 μM were used as reagents. Surfactant solutions were 0.01-20% Tween 80 (polyoxyethylene 20 sorbitan monooleate) in PBS as neutral solution, 0.01-20% Benzalkonium chloride (BAK) in PBS as cationic solution, 0.01-20% Sodium lauryl sulfate (SLS) in PBS as anionic solution. An ultrafiltration reservoir (Millipore, Ultrafree-MC) comprising regenerated cellulose (UFC 3LGC00, 10 k NMWL) or polyethersulfone (UFC 3BSC00, 10 k NMWL) was used.
(§2) The upper ultrafiltration cup was connected to the reservoir tube and 25 μL surfactant solution was added to each well. After bedewing for 5 min, the reservoir tube containing the ultrafiltration cup was centrifuged for 10 min at 3000 g and room temperature.
(§3) 200 μL of PBS was added to each ultrafiltration cup and equilibrated for 30 min. Remaining PBS was removed from the ultrafiltration cup by gentle tapping the cup. The upper ultrafiltration cup was reconnected to a new reservoir tube, and 400 μL drug solution (1-50 μM) in serum or PBS was applied and equilibrated for 1 hr at room temperature.
(§4) The ultrafiltration tube was centrifuged for 18 min at 3000 g at room temperature. 50 μL sample was taken from the receiver (filtrate) and donor (drug solution in serum or PBS) for bioanalysis. Non-specific binding was calculated as follows:
(§5) NSB=(Cf1-Cf2)/Cf1, where NSB: non specific binding to membrane filter at pH 7.4 isotonic PBS, Cf1: free drug before filtration, and Cf2: free drug in the filtrate after filtration

[2] = Non-specific binding (NSB) of drugs to ultrafiltration membrane filter, polyethersulfone (Millipore Ultrafree-MC UFC 3BSC00, 10 k NMWL); assay type: physicochemical; conditions: no pretreatment, drug concentration 10 uM
Procedure: as §1, §2, §3, §4, §5

[3] = no pretreatment, drug concentration 50 uM
[4] = no surfactant pretreatment, drug concentration 5 uM, pH 7.4 PBS

With `CC(C)NCC(O)COc1cccc2ccccc12` (centres unmarked) [Propranolol] the “NSB (%) Control” value [1, 3] was 91%, the “NSB (%) Control” value [1, 4] was 91% and the “NSB (%) 0.5% Tween” value [1] was 66%. For the same compound, the “NSB (%) 0.5% BAK” value [1] was 14%, the “NSB (%) 1% Tween” value [1] was 65% and the “NSB (%) 1% BAK” value [1] was 15%. The “NSB (%) 2% Tween” value [1] was 60%, the “NSB (%) 2% BAK” value [1] was 5% and the “NSB (%) 5% Tween” value [1] was 52%. For the same compound, the “NSB (%) 5% BAK” value [1] was 10%, the “NSB (%) Tween 80” value ([1]; drug concentration 5 uM) was 46.5% and the “NSB (%) BAK” value ([1]; drug concentration 5 uM) was 13%. The “NSB (%) SLS” value ([1]; drug concentration 50 uM) was 84%, the “NSB (%) Serum” value ([1]; drug concentration 50 uM) was 90% and the “NSB (%) RC” value ([1]; no pretreatment) was 91%. The “NSB (%) PES” value [2] was 69%.
For `Cn1c(=O)c2[nH]cnc2n(C)c1=O` [Theophylline], the “NSB (%) Control” value [1, 4] was 8%, the “NSB (%) Tween 80” value ([1]; drug concentration 5 uM) was 0% and the “NSB (%) BAK” value ([1]; drug concentration 5 uM) was 0%.
For `Cc1cc(=O)n(-c2ccccc2)n1C` [Antipyrine], the “NSB (%) Control” value [1, 4] was 10%, the “NSB (%) Tween 80” value ([1]; drug concentration 5 uM) was 0% and the “NSB (%) BAK” value ([1]; drug concentration 5 uM) was 0%.
With `CC[C@]1(O)C[C@@H]2CN(CCc3c([nH]c4ccccc34)[C@@](C(=O)OC)(c3cc4c(cc3OC)N(C)[C@H]3[C@@](O)(C(=O)OC)[C@H](OC(C)=O)[C@]5(CC)C=CCN6CC[C@]43[C@@H]65)C2)C1` [Vinblastine] the “NSB (%) Control” value [1, 4] was 95%, the “NSB (%) 0.5% BAK” value [1] was 82% and the “NSB (%) 1% BAK” value [1] was 79%. The “NSB (%) 2% BAK” value [1] was 68%, the “NSB (%) 5% BAK” value [1] was 59% and the “NSB (%) Tween 80” value ([1]; drug concentration 5 uM) was 95.2%. For the same compound, the “NSB (%) BAK” value ([1]; drug concentration 5 uM) was 64%, the “NSB (%) RC” value ([1]; no pretreatment) was 95% and the “NSB (%) PES” value [2] was 95%.
In the case of `C[C@]12CCC(=O)C=C1CC[C@@H]1[C@@H]2[C@@H](O)C[C@@]2(C)[C@H]1CC[C@]2(O)C(=O)CO` [Hydrocortisone], the “NSB (%) Control” value [1, 3] is reported as 87%, the “NSB (%) Control” value [1, 4] is reported as 87% and the “NSB (%) 0.5% Tween” value [1] is reported as 52%. For the same compound, the “NSB (%) 0.5% BAK” value [1] was 30%, the “NSB (%) 1% Tween” value [1] was 35% and the “NSB (%) 1% BAK” value [1] was 22%. For the same compound, the “NSB (%) 2% Tween” value [1] was 33%, the “NSB (%) 2% BAK” value [1] was 16% and the “NSB (%) 5% Tween” value [1] was 30%. For the same compound, the “NSB (%) 5% BAK” value [1] was 14%, the “NSB (%) Tween 80” value ([1]; drug concentration 5 uM) was 21.1% and the “NSB (%) BAK” value ([1]; drug concentration 5 uM) was 25%. For the same compound, the “NSB (%) SLS” value ([1]; drug concentration 50 uM) was 62%, the “NSB (%) Serum” value ([1]; drug concentration 50 uM) was 84% and the “NSB (%) RC” value ([1]; no pretreatment) was 87%. The “NSB (%) PES” value [2] was 71%.
With `COc1ccc(CCN(C)CCCC(C#N)(c2ccc(OC)c(OC)c2)C(C)C)cc1OC` (centres unmarked) [Verapamil] the “NSB (%) 0.5% BAK” value [1] was 43%, the “NSB (%) 1% BAK” value [1] was 34% and the “NSB (%) 2% BAK” value [1] was 25%. For the same compound, the “NSB (%) 5% BAK” value [1] was 12%.
In the case of `CC(C(=O)O)c1cccc(C(=O)c2ccccc2)c1` (centres unmarked) [Ketoprofen], the “NSB (%) Control” value [1, 4] is reported as 34% and the “NSB (%) Tween 80” value ([1]; drug concentration 5 uM) is reported as 4.1%.
In the case of `COc1cc([C@@H]2c3cc4c(cc3[C@@H](O[C@@H]3O[C@@H]5CO[C@@H](C)O[C@H]5[C@H](O)[C@H]3O)[C@H]3COC(=O)[C@H]23)OCO4)cc(OC)c1O` [Etoposide], the “NSB (%) Control” value [1, 3] is reported as 91%, the “NSB (%) Control” value [1, 4] is reported as 91% and the “NSB (%) Tween 80” value ([1]; drug concentration 5 uM) is reported as 23.1%. The “NSB (%) BAK” value ([1]; drug concentration 5 uM) was 28.3%, the “NSB (%) Serum” value ([1]; drug concentration 50 uM) was 93% and the “NSB (%) RC” value ([1]; no pretreatment) was 91%. For the same compound, the “NSB (%) PES” value [2] was 93%.
For `Cn1c(=O)c2c(ncn2C)n(C)c1=O` [Caffeine], the “NSB (%) Control” value [1, 4] was 17%, the “NSB (%) Tween 80” value ([1]; drug concentration 5 uM) was 0% and the “NSB (%) BAK” value ([1]; drug concentration 5 uM) was 0%.
With `CC(C)Cc1ccc(C(C)C(=O)O)cc1` (centres unmarked) [Ibuprofen] the “NSB (%) Control” value [1, 4] was 29% and the “NSB (%) Tween 80” value ([1]; drug concentration 5 uM) was 2.3%.
